Data reported in US6340670B1, “Acetal benzylmaltosides as inhibitors of smooth muscle cell proliferation” (American Home Products Corporation, priority 1998, dated 2002).

System: Porcine Smooth Muscle Cell
Test: Effects of Compounds on Cell Proliferation Using 3H Thymidine Incorporation
Format: cell-based
Conditions: for Porcine Smooth Muscle Cell Antiproliferation, percent inhibition: control (100%) = maximally stimulated cells; for IC50: serum/growth factor stimulated cells, 24-36 h incubation, read-out: Porcine Smooth Muscle Cell Antiproliferation IC50
Protocol: Effects of Compounds on Cell Proliferation Using ^3H Thymidine Incorporation
Human and porcine smooth muscle cells were tested in early passage (generally passage 3-7) at sub-confluent conditions. Cultures were grown in 16 mm (24 well) multi-well culture dishes in medium 199 supplemented with 10% fetal bovine serum and 2% antibiotic/antimycotic. At sub-confluence, the cells were placed in a defined serum free medium (AIM-V; Gibco) for 24-48 h prior to initiating the experimental protocol.
Compounds were added to each well at 50 fold dilution (20 μL/well) and the plates were incubated for 24-36 h at 37° C. in 5% CO2. Compounds were initially dissolved in 50% ethanol and serially diluted into media. Compounds were routinely evaluated at concentrations from 1 to 100 μM. As a control, grade II porcine intestinal mucosal heparin (sodium salt) was routinely evaluated in all cell preparations at concentrations from 0.1 to 100 μg/mL.
At the completion of the test procedure, plates were placed on ice, washed three times with ice cold phosphate buffered saline (PBS) and incubated in ice cold 10% trichloroacetic acid (TCA) got 30 min to remove acid soluble proteins. Solution was transferred to scintillation vials containing 0.4 N HCl (500 μL/vial to neutralize NaOH) and each well was rinsed two times with water (500 μL) for a total volume of 2 mL/vial.
Data was obtained, in triplicate, for both control and experimental samples. Control (100%) data was obtained from maximally stimulated cells, as the result of growth factor or serum stimulation. Experimental data was obtained from cells maximally stimulated with growth factor or serum and treated with compound. Data are expressed as an IC50 or percent inhibition in Table I below.

SMILES | IC50 [nM] | other results
CC(=O)Nc1cc(COC2OC(CO)C(OC3OC4COC(C)OC4C(O)C3O)C(O)C2O)ccc1Cl [Example 1, N-{2-Chloro-5-[(4′,6′-O-ethylidene)-β-D-maltosyloxymethyl]-phenyl}-acetamide] | – | Porcine Smooth Muscle Cell Antiproliferation, percent inhibition (@ 100 μM): 32% @ 100
CC(=O)Nc1cc(COC2OC(COC(=O)c3ccccc3)C(OC3OC4COC(C)OC4C(O)C3O)C(O)C2O)ccc1Cl [Example 2, (R)-N-[5-[[[6-O-Benzoyl-4-O-(4,6-O-ethylidene-α-D-glucopyranosyl)-β-D-glucopyranosyl]oxy]methyl]-2-chlorophenyl]acetamide] | 103 | –
CC(=O)Nc1cc(COC2OC(COC(=O)c3ccccc3)C(OC3OC4COC(C)OC4C(OC(C)=O)C3OC(C)=O)C(OC(C)=O)C2OC(C)=O)ccc1Cl [Example 3, (R)-N-[2-Chloro-5-[[[2,3-di-O-acetyl-6-O-benzoyl-4-O-(2,3-di-O-acetyl-4,6-O-ethylidene-α-D-glucopyranosyl)-β-D-glucopyranosyl]oxy]methyl]phenyl]acetamide] | 2920 | –
CCC1OCC2OC(OC3C(CO)OC(OCc4ccc(Cl)c(NC(C)=O)c4)C(O)C3O)C(O)C(O)C2O1 [Example 4, N-{2-Chloro-5-[(4′,6′-O-propylidene-β-D-maltosyl)-oxy-methyl]-pheny}-acetamide] | – | Porcine Smooth Muscle Cell Antiproliferation, percent inhibition (@ 50 μM): 16% @ 50
CCC1OCC2OC(OC3C(COC(=O)c4ccccc4)OC(OCc4ccc(Cl)c(NC(C)=O)c4)C(O)C3O)C(O)C(O)C2O1 [Example 5, N-{5-[(6-O-Benzoyl-4′,6′-O-propylidene-β-D-maltosyl)-oxy-methyl]-2-chloro-phenyl}-acetamide] | 37 | –
CC(=O)Nc1cc(COC2OC(COS(=O)(=O)c3ccc(C)cc3)C(OC3OC4COC(c5ccccc5)OC4C(O)C3O)C(O)C2O)ccc1Cl [Example 6, N-(5-{[4′,6′-O-Benzylidene-6-O-(4-toluenesulfonyl)-β-D-maltosyl]-oxy-methyl}2-chloro-phenyl)-acetamide] | 133 | –
CC(=O)Nc1cc(COC2OC(COS(=O)(=O)c3ccc(C)cc3)C(OC3OC4COC(c5ccccc5)OC4C(OC(C)=O)C3OC(C)=O)C(OC(C)=O)C2OC(C)=O)ccc1Cl [Example 7, N-(5-{[2,32′,3′-Tetra-O-acetyl-4′,6′-O-benzylidene-6-O-(4-toluenesulfonyl)-β-D-maltosyl]-oxy-methyl}-2-chloro-phenyl)-acetamide] | 88 | –
CC(=O)Nc1cc(COC2OC(COCc3ccccc3)C(OC3OC4COC(c5ccccc5)OC4C(O)C3O)C(O)C2O)ccc1Cl [Example 8, N-{5-[(6-O-Benzyl-4′,6′-O-benzylidene-β-D-maltosyl)-oxy-methyl]-2-chloro-phenyl}-acetamide] | 1 | –
CC(=O)Nc1cc(COC2OC(CO)C(OC3OC4COC(c5ccc([N+](=O)[O-])cc5)OC4C(O)C3O)C(O)C2O)ccc1Cl [Example 10, N-(2-Chloro-5-{[4′,6′-O-(4-nitro)-benzylidene-β-D-maltosyl]-oxy-methyl}-phenyl)-acetamide] | 19200 | –
CC(=O)Nc1cc(CO[C@@H]2O[C@H](COC(=O)c3ccccc3)[C@@H](O[C@H]3O[C@@H]4COC(c5ccc([N+](=O)[O-])cc5)O[C@H]4[C@H](O)[C@H]3O)[C@H](O)[C@H]2O)ccc1Cl (stereo partly drawn) [Example 11, N-(5-{[6-O-Benzoyl-4′,6′-O-(4-nitro)-benzylidene-β-D-maltosyl]-oxy-methyl}-2-chloro-phenyl)-acetamide] | 3 | –
CC(=O)Nc1cc(COC2OC(CO)C(OC3OC4COC(c5ccc(Cl)cc5)OC4C(O)C3O)C(O)C2O)ccc1Cl [Example 12, N-{2-Chloro-5-[(4′,6′-O-(4-chloro)-benzylidene-β-D-maltosyl)-oxy-methyl]-phenyl}-acetamide] | 29400 | –
CC(=O)Nc1cc(COC2OC(COC(=O)c3ccccc3)C(OC3OC4COC(c5ccc(Cl)cc5)OC4C(O)C3O)C(O)C2O)ccc1Cl [Example 13, N-{1 5-[(6-O-Benzoyl-4′,6′-O-(4-chloro)-benzylidene-β-D-maltosyl)-oxy-methyl]-2-chloro-phenyl}-acetamide] | 23 | –
CC(=O)Nc1cc(COC2OC(COC(=O)c3ccccc3)C(OC3OC4COC(C(C)C)OC4C(O)C3O)C(O)C2O)ccc1Cl [Example 15, N-{5-[(6-O-Benzoyl-4′,6′-O-isobutylidene-β-D-maltosyl)-oxy-methyl]-2-chloro-phenyl}-acetamide] | 3 | –
CC(=O)Nc1cc(COC2OC(CO)C(OC3OC4COC(Cc5ccccc5)OC4C(O)C3O)C(O)C2O)ccc1Cl [Example 16, N-{5-[(4′,6′-O-((1R)-2-Phenyl-ethylidene)-β-D-maltosyloxy)-methyl]-2-chloro-phenyl}-acetamide] | 16300 | –
CC(=O)Nc1cc(COC2OC(COC(=O)c3ccccc3)C(OC3OC4COC(Cc5ccccc5)OC4C(O)C3O)C(O)C2O)ccc1Cl [Example 17, N-{5-[(6-O-Benzoyl-4′,6′-O-((1R)-2-phenyl-ethylidene)-β-D-maltosyloxy)-methyl]-2-chloro-phenyl}-acetamide] | 35 | –
CC(=O)Nc1cc(COC2OC(CO)C(OC3OC4COC(CCC#N)OC4C(O)C3O)C(O)C2O)ccc1Cl [Example 18, N-{2-Chloro-5[-(4′,6′-O-((1R)-3-cyano-propylidene)-β-D-maltosyloxy)-methyl]-phenyl}-acetamide] | – | Porcine Smooth Muscle Cell Antiproliferation, percent inhibition (@ 50 μM): 43% @ 50
CC(=O)Nc1cc(COC2OC(COC(=O)c3ccccc3)C(OC3OC4COC(CCC#N)OC4C(O)C3O)C(O)C2O)ccc1Cl [Example 19, N-{5-{[6-O-Benzoyl-4′,6′-O-((1R)-3-cyanopropylidene)-β-D-maltosyloxy]-methyl}-2-chloro-phenyl}-acetamide] | 1 | –
CCOCC[C@@H]1OC[C@H]2O[C@H](O[C@H]3[C@H](O)[C@@H](O)[C@H](OCc4ccc(Cl)c(NC(C)=O)c4)O[C@@H]3CO)[C@H](O)[C@@H](O)[C@@H]2O1 [Example 20, N-{2-Chloro-5-[(4′,6′-O-((1R)-3-ethoxy-propylidene)-β-D-maltosyloxy)-methyl]-phenyl}-acetamide] | – | Porcine Smooth Muscle Cell Antiproliferation, percent inhibition (@ 50 μM): 48% @ 50
CCOCCC1OCC2OC(OC3C(COC(=O)c4ccccc4)OC(OCc4ccc(Cl)c(NC(C)=O)c4)C(O)C3O)C(O)C(O)C2O1 [Example 21, N-{5-{[6-O-Benzoyl-4′,6′-O-((1R)-3-ethoxypropylidene)-β-D-maltosyloxy]-methyl}-2-chloro-phenyl}-acetamide] | 62 | –
CC(=O)Nc1cc(COC2OC(CO)C(OC3OC4COC(c5ccncc5)OC4C(O)C3O)C(O)C2O)ccc1Cl [Example 22, N-(2-Chloro-5-{[4′,6′-O-(4-pyridinemethylidene)-β-D-maltosyl]-oxy-methyl}-phenyl)-acetamide] | 5530 | –
CC(=O)Nc1cc(CO[C@@H]2O[C@H](CO)[C@@H](O[C@H]3O[C@@H]4COC(c5ccccc5)O[C@H]4[C@H](O)[C@H]3O)[C@H](O)[C@H]2O)ccc1Cl (stereo partly drawn) [Example 24, N-{5-[(4′,6′-O-Benzylidene-β-D-maltosyloxy)-methyl]-2-chloro-phenyl}-acetamide] | 6600 | –
CC(=O)Nc1cc(COC2OC(COC(C)=O)C(OC3OC4COC(c5ccccc5)OC4C(OC(C)=O)C3OC(C)=O)C(OC(C)=O)C2OC(C)=O)ccc1Cl [Example 25, N-{5-[(4′,6′-O-Benzylidene-2,2′,3,3′,6-penta-O-acetyl-β-D-maltosyl-oxy)-methyl]-2-chloro-phenyl}-acetamide] | 700 | –
